Laboratory results taken from ChEMBL document CHEMBL1697731, “Cheminformatics analysis of assertions mined from literature that describe drug-induced liver injury in different species” (Chem Res Toxicol, 2010).
*1 amine or outer side, *2 acyl side, *3 side chain or, on linkers, in order; H or OH if unused. Where a SMILES comes first, the peptide text is derived from it. Bridges are numbered along the chain shown (N, C = ends). [ ]: non-standard residue; d: D form. The star is where a group is joined. hTyr(3S-OH,4S-OH,3'-OSO3H) = N[C@H](C(=O)O)[C@H](O)[C@@H](O)c1ccc(O)c(OS(=O)(=O)O)c1; Orn(4R-OH,5R-OH) = O=C([C@H](C[C@@H](O)[C@@H](O)N[*:3])N[*:1])[*:2]; Pro(3S-OH,4S-Me) = C[C@H]1CN[C@H](C(=O)O)[C@H]1O; X1 = CCCCCOc1ccc(-c2cc(-c3ccc(C(=O)*)cc3)no2)cc1; Gln(3R-OH) = NC(=O)C[C@@H](O)[C@H](N)C(=O)O; Hyp = O=C(O)[C@@H]1C[C@@H](O)CN1

How the values were obtained:
Hepatotoxicity [1] = experiment: Literature-mined compound from Fourches et al multi-species drug-induced liver injury (DILI) dataset, effect in rodents; settings: rodentia
Hepatotoxicity [2] = experiment: Literature-mined compound from Fourches et al multi-species drug-induced liver injury (DILI) dataset, effect in non-rodents
Hepatotoxicity [3] = experiment: Literature-mined compound from Fourches et al multi-species drug-induced liver injury (DILI) dataset, effect in humans; settings: human

Compound	Hepatotoxicity (Hepatotoxicity [1])	Hepatotoxicity (Hepatotoxicity [2])	Hepatotoxicity (Hepatotoxicity [3])	Hepatotoxicity (Hepatotoxicity [1]; Liver)	Hepatotoxicity (Hepatotoxicity [2]; Liver)	Hepatotoxicity (Hepatotoxicity [3]; Liver)
CCC(=O)C(CC(C)N(C)C)(c1ccccc1)c1ccccc1 (stereo unspecified) [METHADONE]	drug-induced liver injury reported	no drug-induced liver injury reported	drug-induced liver injury reported	–	–	–
CN[C@@H](C)Cc1ccccc1 [METHAMPHETAMINE]	drug-induced liver injury reported	no drug-induced liver injury reported	drug-induced liver injury reported	–	–	–
Cc1ccccc1-n1c(C)nc2ccccc2c1=O [METHAQUALONE]	drug-induced liver injury reported	no drug-induced liver injury reported	no drug-induced liver injury reported	–	–	–
CSCC[C@H](N)C(=O)O [METHIONINE]	–	–	–	drug-induced liver injury reported	drug-induced liver injury reported	drug-induced liver injury reported
C=CCC1(C(C)C#CCC)C(=O)N=C([O-])N(C)C1=O.[Na+] (stereo unspecified) [METHOHEXITAL SODIUM]	drug-induced liver injury reported	no drug-induced liver injury reported	no drug-induced liver injury reported	–	–	–
CN(Cc1cnc2nc(N)nc(N)c2n1)c1ccc(C(=O)N[C@@H](CCC(=O)O)C(=O)O)cc1 [METHOTREXATE]	drug-induced liver injury reported	drug-induced liver injury reported	drug-induced liver injury reported	–	–	–
COc1c2occc2cc2ccc(=O)oc12 [METHOXSALEN]	drug-induced liver injury reported	no drug-induced liver injury reported	drug-induced liver injury reported	–	–	–
COC(F)(F)C(Cl)Cl [METHOXYFLURANE]	drug-induced liver injury reported	no drug-induced liver injury reported	drug-induced liver injury reported	–	–	–
COC(=O)c1ccccc1O [METHYL SALICYLATE]	no drug-induced liver injury reported	drug-induced liver injury reported	no drug-induced liver injury reported	–	–	–
C[C@](N)(Cc1ccc(O)c(O)c1)C(=O)O [METHYLDOPA]	no drug-induced liver injury reported	no drug-induced liver injury reported	drug-induced liver injury reported	–	–	–
COC(=O)C(c1ccccc1)C1CCCCN1 (stereo unspecified) [METHYLPHENIDATE]	drug-induced liver injury reported	no drug-induced liver injury reported	drug-induced liver injury reported	–	–	–
C[C@H]1C[C@@H]2[C@H]([C@@H](O)C[C@@]3(C)[C@H]2CC[C@]3(O)C(=O)CO)[C@@]2(C)C=CC(=O)C=C12 [METHYLPREDNISOLONE]	drug-induced liver injury reported	no drug-induced liver injury reported	drug-induced liver injury reported	–	–	–
CCC1(CC)C(=O)NCC(C)C1=O (stereo unspecified) [METHYPRYLON]	drug-induced liver injury reported	no drug-induced liver injury reported	no drug-induced liver injury reported	–	–	–
CCN(CC)CCNC(=O)c1cc(Cl)c(N)cc1OC [METOCLOPRAMIDE]	drug-induced liver injury reported	no drug-induced liver injury reported	drug-induced liver injury reported	–	–	–
COCCc1ccc(OCC(O)CNC(C)C)cc1 (stereo unspecified) [METOPROLOL]	drug-induced liver injury reported	no drug-induced liver injury reported	drug-induced liver injury reported	–	–	–
Cc1ncc([N+](=O)[O-])n1CCO [METRONIDAZOLE]	drug-induced liver injury reported	no drug-induced liver injury reported	drug-induced liver injury reported	–	–	–
CC(C)(C(=O)c1cccnc1)c1cccnc1 [METYRAPONE]	–	–	–	drug-induced liver injury reported	no drug-induced liver injury reported	drug-induced liver injury reported
CN1CCN2c3ccccc3Cc3ccccc3C2C1 (stereo unspecified) [MIANSERIN]	drug-induced liver injury reported	no drug-induced liver injury reported	drug-induced liver injury reported	–	–	–
CCCCCOc1ccc(-c2cc(-c3ccc(C(=O)N[C@H]4C[C@@H](O)[C@@H](O)NC(=O)[C@@H]5[C@@H](O)[C@@H](C)CN5C(=O)[C@H]([C@H](O)CC(N)=O)NC(=O)[C@H]([C@H](O)[C@@H](O)c5ccc(O)c(OS(=O)(=O)O)c5)NC(=O)[C@@H]5C[C@@H](O)CN5C(=O)[C@H]([C@@H](C)O)NC4=O)cc3)no2)cc1 [MICAFUNGIN] (X1-[Orn(4R-OH,5R-OH)]T[Hyp][hTyr(3S-OH,4S-OH,3'-OSO3H)][Gln(3R-OH)][Pro(3S-OH,4S-Me)]; lactam 1-C)	no drug-induced liver injury reported	no drug-induced liver injury reported	drug-induced liver injury reported	–	–	–

Compound	Hepatotoxicity (Hepatotoxicity [1])	Hepatotoxicity (Hepatotoxicity [2])	Hepatotoxicity (Hepatotoxicity [3])	Hepatotoxicity (Hepatotoxicity [1]; Liver)	Hepatotoxicity (Hepatotoxicity [2]; Liver)	Hepatotoxicity (Hepatotoxicity [3]; Liver)
Clc1ccc(COC(Cn2ccnc2)c2ccc(Cl)cc2Cl)c(Cl)c1 (stereo unspecified) [MICONAZOLE]	drug-induced liver injury reported	no drug-induced liver injury reported	drug-induced liver injury reported	–	–	–
Cc1ncc2n1-c1ccc(Cl)cc1C(c1ccccc1F)=NC2 [MIDAZOLAM]	drug-induced liver injury reported	no drug-induced liver injury reported	no drug-induced liver injury reported	–	–	–
CC#C[C@]1(O)CC[C@H]2[C@@H]3CCC4=CC(=O)CCC4=C3[C@@H](c3ccc(N(C)C)cc3)C[C@@]21C [MIFEPRISTONE]	drug-induced liver injury reported	no drug-induced liver injury reported	no drug-induced liver injury reported	–	–	–
CCCCCCCCCCCCCCCCOP(=O)([O-])OCC[N+](C)(C)C [MILTEFOSINE]	no drug-induced liver injury reported	no drug-induced liver injury reported	drug-induced liver injury reported	–	–	–
CN(C)c1ccc(O)c2c1C[C@H]1C[C@H]3[C@H](N(C)C)C(O)=C(C(N)=O)C(=O)[C@@]3(O)C(O)=C1C2=O [MINOCYCLINE]	drug-induced liver injury reported	no drug-induced liver injury reported	drug-induced liver injury reported	–	–	–
Nc1cc(N2CCCCC2)nc(N)[n+]1[O-] [MINOXIDIL]	drug-induced liver injury reported	no drug-induced liver injury reported	drug-induced liver injury reported	–	–	–
CN1CCN2c3ncccc3Cc3ccccc3C2C1 (stereo unspecified) [MIRTAZAPINE]	no drug-induced liver injury reported	no drug-induced liver injury reported	drug-induced liver injury reported	–	–	–
CCCCC(C)(O)C/C=C/[C@H]1[C@H](O)CC(=O)[C@@H]1CCCCCCC(=O)OC (stereo partly specified) [MISOPROSTOL]	drug-induced liver injury reported	drug-induced liver injury reported	no drug-induced liver injury reported	–	–	–
O=C(O)[C@H](CC(=O)N1C[C@H]2CCCC[C@H]2C1)Cc1ccccc1 [MITIGLINIDE]	drug-induced liver injury reported	no drug-induced liver injury reported	no drug-induced liver injury reported	–	–	–
Clc1ccc(C(c2ccccc2Cl)C(Cl)Cl)cc1 (stereo unspecified) [MITOTANE]	no drug-induced liver injury reported	drug-induced liver injury reported	drug-induced liver injury reported	–	–	–
O=C1c2c(O)ccc(O)c2C(=O)c2c(NCCNCCO)ccc(NCCNCCO)c21 [MITOXANTRONE]	drug-induced liver injury reported	no drug-induced liver injury reported	drug-induced liver injury reported	–	–	–
CN(c1nccc(=O)[nH]1)C1CCN(c2nc3ccccc3n2Cc2ccc(F)cc2)CC1 [MIZOLASTINE]	no drug-induced liver injury reported	no drug-induced liver injury reported	drug-induced liver injury reported	–	–	–
NC(=O)C[S+]([O-])C(c1ccccc1)c1ccccc1 (stereo unspecified) [MODAFINIL]	no drug-induced liver injury reported	no drug-induced liver injury reported	drug-induced liver injury reported	–	–	–
CCOC(=O)[N-]c1cn(N2CCOCC2)n[o+]1 [MOLSIDOMINE]	drug-induced liver injury reported	no drug-induced liver injury reported	drug-induced liver injury reported	–	–	–
CC[C@@]1([C@H]2O[C@H]([C@H]3O[C@@](O)(CO)[C@H](C)C[C@@H]3C)C[C@H]2C)CC[C@H]([C@@]2(C)CC[C@]3(C[C@H](O)[C@@H](C)[C@@H]([C@H](C)[C@H](OC)[C@@H](C)C(=O)[O-])O3)O2)O1.[Na+] [MONENSIN SODIUM]	drug-induced liver injury reported	no drug-induced liver injury reported	no drug-induced liver injury reported	–	–	–
CC(C)(O)c1ccccc1CC[C@@H](SCC1(CC(=O)O)CC1)c1cccc(/C=C/c2ccc3ccc(Cl)cc3n2)c1 [MONTELUKAST]	no drug-induced liver injury reported	no drug-induced liver injury reported	drug-induced liver injury reported	–	–	–
O=C(NCN1CCOCC1)c1cnccn1 [MORINAMIDE]	no drug-induced liver injury reported	no drug-induced liver injury reported	drug-induced liver injury reported	–	–	–
CN1CC[C@]23c4c5ccc(O)c4O[C@H]2[C@@H](O)C=C[C@H]3[C@H]1C5 [MORPHINE]	–	–	–	drug-induced liver injury reported	no drug-induced liver injury reported	drug-induced liver injury reported
